# Measurements: patent US20040063651A1, “Remedies for hepatitis c” (priority 2000, published 2004)
# Legend:
# Hepatitis C Virus (HCV) = experiment: Inhibitory effect on HCV proliferation in infected MT-2C cells (nested RT-PCR detection limit dilution of HCV genome); type: cell-based; settings: for detection of HCV genome in diluted RT product: FIG. 2, negative control detected up to 10-fold or 30-fold dilution
# Experimental: Inhibitory effect on HCV proliferation of the compounds of Synthetic Example 1, Synthetic Example 2, Synthetic Example 10 and Synthetic Example 11 described above was measured by the following process.
# Measurement of anti HCV proliferation inhibitory activity was performed in accordance with a known process (Kato, N. et. al., Biochem. Biophs. Res. Commun. 206, 863-869, 1995).
# (§1) MT-2C cells that are cells derived from human T cells (Kato, N. et. al., Biochem. Biophs. Res. Commun. 206, 863-869, 1995) were cultured in an RPMI 1640 medium (Gibco-BRL 11875-101) supplemented with FBS (Foetal Bovine Serum, Gibco-BRL10082-147) at 10%. Thus cultured MT-2C cells (1×10^6 cells) were suspended in 200 uL of an F-12 medium (Gibco-BRL 11059-029) added with EDTA (ethylenediamine tetraacetic acid) to yield final concentration of 5 mM. Thereto was added 20 μL of a serum derived from a hepatitis C patient, followed by infection at 37° C. for 2 hours. After the infection, the cells were washed three times with 1 mL of PBS (Phosphate buffered saline), suspended in 6 mL of an RPMI medium added with FBS at 10%. The suspended cells were seeded on a 48 well culture plate, and incubated in a CO2 incubator at 32° C. for 3 days.
# Thereto was added the compound of Synthetic Example 1, Synthetic Example 2, Synthetic Example 10 or Synthetic Example 11 dissolved in DMSO (Dimethyl Sulfoxide) in an amount of thousandths of the medium, and the mixture was cultured for 3 days. A medium adjusted to have the same concentration of the identical compound was added to each well in a two-fold volume, followed by an additional culture for 4 days. Cells were harvested for each of the samples, and total cellular RNA was purified. For the RNA purification, ISOGEN (NIPPON GENE, 311-02501) was used. In order to quantitatively determine an HCV RNA genome in the purified RNA, the following operation was carried out.
# Using 1 μg of the purified RNA, a reverse transcription reaction was performed in a total volume of 20 uL at 37° C. for 1 hour. Subsequently, an inactivation treatment of the reverse transcriptase was carried out at 100° C. for 30 minutes. SuperScript™ II (Gibco BRL 18064-014) was used as a reverse. transcriptase, and an oligoDNA (Gibco BRL) having 20 bases which are complementary to the sequence of base position 317 through base position 336 of HCV-J strain (Kato, N. et. al. Proc. Natl. Acad. Sci. USA 87, 9524-9528, 1990) was used as a primer.
# Product of the reverse transcription reaction was diluted to 3-fold, 10-fold, 30-fold and 100-fold with sterilized and distilled water. First PCR (Polymerase Chain Reaction), (34 cycles of: at 94° C. for 1 minute, at 58° C. for 45 seconds and at 72° C. for 1 minute; and 1 cycle of: at 94° C. for 1 minute, at 58° C. for 1 minute and 40 seconds and at 72° C. for 8 minutes) was performed in a total volume of 50 μL using 3 μL of the diluted product of the reverse transcription reaction. EX-Taq (TAKARA RR001A) was used as a DNA synthetase, while an oligoDNA (GibcoBRL) having 20 bases which correspond to the sequence of base position 71 through base position 90 and an oligoDNA (Gibco BRL) having 20 bases which are complementary to the sequence of base position 317 through base position 336 of HCV-J strain were used as primers. […]
# MT-2C cells = experiment: Yield of total cellular RNA of HCV-infected MT-2C cells (cell injury); type: cell-based, human; settings: 0.1-10 μM compound, 7 days culture
# Experimental: as §1, with “days. Thereto was added the compound of Synthetic Example 1, Synthetic Example 2, Synthetic Example 10 or Synthetic Example 11 dissolved in DMSO (Dimethyl Sulfoxide) in an amount of thousandths of the medium, and the mixture was cultured for 3 days. A medium adjusted to have the same concentration of the identical compound was added to each well in a two-fold volume, followed by an additional culture for 4 days. Cells were harvested for each of the samples, and total cellular RNA was purified. For the RNA purification, ISOGEN (NIPPON GENE, 311-02501) was used. In order to quantitatively determine an HCV RNA genome in the purified RNA, the following operation was carried out.” for “days.”
# [1] = test system: proximate viruses of the hepatitis C virus (viruses having (+)-chain single stranded RNA in their genome); settings: cited from earlier work
# HCV RNA polymerase = molecular target: T1, HCV RNA polymerase (Hepatitis C virus genotype 1b, UniProt Q9WMX2); experiment: Inhibitory effect on HCV RNA polymerase activity ([α-32P]UTP incorporation, poly(A)/oligo(U)); type: biochemical; settings: 10 uM UTP, 30° C. for 30 minutes; read-out: 50% inhibitory concentration for HCV RNA polymerase
# T1 construct: Expression and purification of HCV RNA polymerase were performed in accordance with known processes; made in house
# T1 sequence (Q9WMX2 2420-3010): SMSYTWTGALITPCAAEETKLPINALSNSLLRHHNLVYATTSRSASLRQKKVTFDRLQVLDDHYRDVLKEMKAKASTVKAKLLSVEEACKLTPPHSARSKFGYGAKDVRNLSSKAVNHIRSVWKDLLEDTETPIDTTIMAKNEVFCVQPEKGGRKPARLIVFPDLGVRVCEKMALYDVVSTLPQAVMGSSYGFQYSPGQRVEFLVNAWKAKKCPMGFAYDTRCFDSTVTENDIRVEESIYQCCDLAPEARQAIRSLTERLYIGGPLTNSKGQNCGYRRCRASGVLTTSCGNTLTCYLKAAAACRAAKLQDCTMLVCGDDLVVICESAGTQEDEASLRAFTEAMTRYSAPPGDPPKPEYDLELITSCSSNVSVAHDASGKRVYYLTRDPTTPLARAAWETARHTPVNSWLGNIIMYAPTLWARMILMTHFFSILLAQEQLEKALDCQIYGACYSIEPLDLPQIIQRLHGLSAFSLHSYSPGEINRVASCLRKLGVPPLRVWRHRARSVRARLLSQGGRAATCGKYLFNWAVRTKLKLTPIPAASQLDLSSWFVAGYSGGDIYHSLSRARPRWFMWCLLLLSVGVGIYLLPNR
# Experimental: Inhibitory effect on an HCV RNA polymerase activity of the compounds of Synthetic Example 12, Synthetic Example 13, Synthetic Example 19, Synthetic Example 21 and Synthetic Example 22 described above was measured by the following process.
# Expression and purification of HCV RNA polymerase were performed in accordance with known processes (V. Lohman et al., VIROLOGY, 249, 108-118, 1998).
# The purified HCV RNA polymerase in an amount of 200 ng was mixed with 100 ng/mL poly(A)RNA (polyadenine RNA) as a template RNA and 25 ng/mL 15-mer oligo(U)RNA (oligouridine having 15 bases, TAKARA Shuzo) as a primer RNA in 50 μL of an aqueous solution containing 20 mM Tris-Cl (pH 7.5), 5 MM MgCl2, 25 mM KCl, 10 uM UTP (Uridine-triphosphate), 0.25 Ci/mL [α-^32P]UTP (Amersham, PB10203). Then, thereto was added the compound of Synthetic Example 12, Synthetic Example 13, Synthetic Example 19, Synthetic Example 21 or Synthetic Example 22, followed by an RNA synthetic reaction at 30° C. for 30 minutes.
# After completing the reaction, RNA in the solution was absorbed on DE81 paper (Whattman). Then, [α-^32P]UTP which was not incorporated into the synthesized RNA was washed out with 0.5 M phosphate buffer, and the quantity of [α-^32P]UTP which was incorporated into the synthesized RNA on the DE81 paper was determined on a liquid scintillation counter.
# Inhibitory potency of the compounds of Synthetic Example 12, Synthetic Example 13, Synthetic Example 19, Synthetic Example 21 and Synthetic Example 22 was represented by 50% inhibitory concentration when the negative control without HCV RNA polymerase was assumed as 0% while the positive control without the compound was assumed as 100%.
# hepatitis C = settings: medical treatment of hepatitis C; cited from earlier work
Molecule,yield of total RNA for each of the samples (injury on the cells) (MT-2C cells),IC50 (HCV RNA polymerase),also measured
"O=c1ccn([C@@H]2O[C@H](CO)[C@@H](F)[C@H]2O)c(=O)[nH]1 [Synthetic Example 1, 3′-deoxy-3′-fluorouridine]",little or no alteration,–,"detection limit dilution (fold) of an HCV genome (Hepatitis C Virus (HCV); 1.0 μM added, FIG. 1, negative control detected up to 30-fold or 100-fold dilution): up to 3-fold or 10-fold; inhibitory activity on proximate viruses of the hepatitis C virus [1]: only a low inhibitory activity"
"O=c1[nH]c(=O)n([C@@H]2O[C@H](CO)[C@@H](F)[C@H]2O)cc1F [Synthetic Example 2, 3′-deoxy-5,3′-difluorouridine]",little or no alteration,–,–
"O=c1ccn([C@H]2O[C@@H](CO)[C@H](F)[C@@H]2O)c(=O)[nH]1 [Synthetic Example 10, 1-(3′-deoxy-3′-fluoro-β-L-ribofuranosyl)uracil]",little or no alteration,–,"detection of HCV genome in diluted RT product (Hepatitis C Virus (HCV); 1 μM added): could not be detected, except for one sample diluted to 10-fold; detection of HCV genome in diluted RT product (Hepatitis C Virus (HCV); 10 μM added): could not be detected, except for one sample diluted to 10-fold"
"O=c1[nH]c(=O)n([C@H]2O[C@@H](CO)[C@H](F)[C@@H]2O)cc1F [Synthetic Example 11, 1-(3′-deoxy-5,3′-difluoro-β-L-ribofuranosyl)uracil]",little or no alteration,–,"detection of HCV genome in diluted RT product (Hepatitis C Virus (HCV); 1 μM added): could not be detected, except for one sample diluted to 10-fold; detection of HCV genome in diluted RT product (Hepatitis C Virus (HCV); 10 μM added): could not be detected, except for one sample diluted to 10-fold"
"O=c1ccn([C@@H]2O[C@H](COP(=O)(O)OP(=O)(O)OP(=O)(O)O)[C@@H](F)[C@H]2O)c(=O)[nH]1 [Synthetic Example 12, 3′-deoxy-3′-fluorouridine 5′-triphosphate]",–,0.3 µM,–
"O=c1[nH]c(=O)n([C@@H]2O[C@H](COP(=O)(O)OP(=O)(O)OP(=O)(O)O)[C@@H](F)[C@H]2O)cc1F [Synthetic Example 13, 3′-deoxy-5,3′-difluorouridine 5′-triphosphate]",–,1 µM,–
"O=c1ccn([C@@H]2O[C@H](COP(=O)(O)OP(=O)(O)OP(=O)(O)O)[C@@H](F)[C@H]2O)c(=S)[nH]1 [Synthetic Example 19, 3′-deoxy-3′-fluoro-2-thiouridine 5′-triphosphate]",–,3 µM,–
"O=c1ccn([C@H]2O[C@@H](COP(=O)(O)OP(=O)(O)OP(=O)(O)O)[C@H](F)[C@@H]2O)c(=O)[nH]1 [Synthetic Example 21, 1-(3′-deoxy-3′-fluoro-β-L-ribofuranosyl)uracil 5′-triphosphate]",–,3 µM,–
"O=c1[nH]c(=O)n([C@H]2O[C@@H](COP(=O)(O)OP(=O)(O)OP(=O)(O)O)[C@H](F)[C@@H]2O)cc1F [Synthetic Example 22, 1-(3′-deoxy-5,3′-fluoro-β-L-ribofuranosyl)uracil 5′-triphosphate]",–,10 µM,–
interferon,–,–,efficacy (hepatitis C): not more than 30%
